From ChEMBL document CHEMBL4507276 (2021)

Tests used:
[1] = target: Alpha-2C adrenergic receptor (Homo sapiens) (UniProt P18825); conditions: Compound concentration 10.0 uM
[2] = target: Arachidonate 5-lipoxygenase-activating protein (Homo sapiens, UniProt P20292); experiment: Functional inhibition in mouse whole blood; assay type: tissue-based; conditions: target entry is the homologue from another species
[3] = target: Tyrosine-protein kinase ABL1 (Homo sapiens) (UniProt P00519); experiment: ABL_CE Cerep selectivity data (BI); conditions: Compound concentration 20.0 uM
[4] = target: Alpha-2B adrenergic receptor (Homo sapiens) (UniProt P18089); experiment: ALPHA2BH_ANTAG Cerep selectivity data (BI); conditions: filed as antagonist, Compound concentration 20.0 uM
[5] = target: Beta-1 adrenergic receptor (Homo sapiens) (UniProt P08588); experiment: BETA1/HUM Cerep selectivity data (BI); conditions: Compound concentration 20.0 uM
[6] = target: Cannabinoid receptor 1 (Homo sapiens) (UniProt P21554); experiment: CB1/CENTR/H Cerep selectivity data (BI); conditions: Compound concentration 20.0 uM
[7] = target: Sodium-dependent dopamine transporter (Homo sapiens, UniProt Q01959); experiment: DATRANS/HUM Cerep selectivity data (BI); conditions: Compound concentration 20.0 uM
[8] = target: Prostaglandin F2-alpha receptor (Homo sapiens) (UniProt P43088); experiment: FPH_AGON Cerep selectivity data (BI); conditions: filed as agonist, Compound concentration 20.0 uM
[9] = target: Adenosine receptor A3 (Homo sapiens) (UniProt P0DMS8); experiment: A3/H Eurofins-Panlabs selectivity data (BI); conditions: Compound concentration 10.0 uM
[10] = target: P2Y purinoceptor 1 (Rattus norvegicus) (UniProt P49651); experiment: P2Y/RAT Eurofins-Panlabs selectivity data (BI); conditions: Compound concentration 10.0 uM
[11] = target: Protein kinase C alpha type (Mus musculus) (UniProt P20444); experiment: PHORBOLE/M Eurofins-Panlabs selectivity data (BI); conditions: Compound concentration 10.0 uM
[12] = target: Dual specificity protein kinase CLK4 (Homo sapiens) (UniProt Q9HAZ1); experiment: CLK4 Invitrogen selectivity data (BI); conditions: Compound concentration 3.0 uM
[13] = target: Glycogen synthase kinase-3 beta (Homo sapiens) (UniProt P49841); experiment: GSK3B Invitrogen selectivity data (BI); conditions: Compound concentration 3.0 uM
[14] = target: Tyrosine-protein kinase HCK (Homo sapiens) (UniProt P08631); experiment: HCK Invitrogen selectivity data (BI); conditions: Compound concentration 3.0 uM
[15] = target: Homeodomain-interacting protein kinase 1 (Homo sapiens) (UniProt Q86Z02); experiment: HIPK1 Invitrogen selectivity data (BI); conditions: Compound concentration 3.0 uM
[16] = target: T1, Mitogen-activated protein kinase kinase kinase 5 (Homo sapiens) (UniProt Q99683); experiment: MAP3K5 Invitrogen selectivity data (BI); conditions: Compound concentration 3.0 uM
T1 sequence (whole entry): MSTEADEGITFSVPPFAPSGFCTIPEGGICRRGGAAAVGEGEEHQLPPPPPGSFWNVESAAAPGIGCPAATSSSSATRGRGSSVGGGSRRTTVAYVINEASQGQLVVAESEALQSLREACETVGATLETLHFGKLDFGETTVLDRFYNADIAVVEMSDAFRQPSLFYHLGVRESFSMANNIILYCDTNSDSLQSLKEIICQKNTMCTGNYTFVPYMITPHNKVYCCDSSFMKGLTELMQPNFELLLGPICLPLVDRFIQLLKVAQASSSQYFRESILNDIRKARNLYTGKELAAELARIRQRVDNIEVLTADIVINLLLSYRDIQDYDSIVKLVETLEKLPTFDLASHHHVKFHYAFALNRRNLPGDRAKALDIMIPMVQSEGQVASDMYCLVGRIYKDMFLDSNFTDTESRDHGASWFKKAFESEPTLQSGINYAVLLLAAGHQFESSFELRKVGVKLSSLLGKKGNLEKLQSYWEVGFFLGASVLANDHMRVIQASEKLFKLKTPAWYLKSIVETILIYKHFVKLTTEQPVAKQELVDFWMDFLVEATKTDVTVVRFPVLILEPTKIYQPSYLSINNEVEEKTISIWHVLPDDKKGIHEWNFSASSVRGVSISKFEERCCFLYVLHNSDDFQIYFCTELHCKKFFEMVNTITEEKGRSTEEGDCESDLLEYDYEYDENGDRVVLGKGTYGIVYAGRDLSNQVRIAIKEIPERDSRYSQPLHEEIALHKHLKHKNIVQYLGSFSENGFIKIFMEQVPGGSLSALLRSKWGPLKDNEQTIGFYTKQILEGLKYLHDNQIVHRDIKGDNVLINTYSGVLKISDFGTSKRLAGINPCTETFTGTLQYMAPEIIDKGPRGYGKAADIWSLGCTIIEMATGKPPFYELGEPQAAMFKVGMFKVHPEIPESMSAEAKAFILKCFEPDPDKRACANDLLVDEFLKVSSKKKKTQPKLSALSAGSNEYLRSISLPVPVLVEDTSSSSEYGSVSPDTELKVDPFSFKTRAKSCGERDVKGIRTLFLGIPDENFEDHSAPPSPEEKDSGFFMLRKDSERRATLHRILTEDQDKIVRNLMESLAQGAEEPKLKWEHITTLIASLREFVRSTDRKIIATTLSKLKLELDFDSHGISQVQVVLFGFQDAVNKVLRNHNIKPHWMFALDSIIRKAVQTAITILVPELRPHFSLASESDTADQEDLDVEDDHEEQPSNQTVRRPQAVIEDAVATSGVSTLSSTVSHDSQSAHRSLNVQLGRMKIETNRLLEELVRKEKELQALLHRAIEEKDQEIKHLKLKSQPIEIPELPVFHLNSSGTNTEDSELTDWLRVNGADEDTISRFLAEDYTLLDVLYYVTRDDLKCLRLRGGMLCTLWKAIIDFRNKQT

[17] = target: Macrophage-stimulating protein receptor (Homo sapiens) (UniProt Q04912); experiment: MST1R Invitrogen selectivity data (BI); conditions: Compound concentration 3.0 uM
[18] = target: Serine/threonine-protein kinase Nek6 (Homo sapiens) (UniProt Q9HC98); experiment: NEK6 Invitrogen selectivity data (BI); conditions: Compound concentration 3.0 uM
[19] = target: Serine/threonine-protein kinase PAK 6 (Homo sapiens) (UniProt Q9NQU5); experiment: PAK6 Invitrogen selectivity data (BI); conditions: Compound concentration 3.0 uM
[20] = target: Protein kinase C beta type (Homo sapiens) (UniProt P05771); experiment: PRKCB2 Invitrogen selectivity data (BI); conditions: Compound concentration 3.0 uM
[21] = target: STE20-like serine/threonine-protein kinase (Homo sapiens) (UniProt Q9H2G2); experiment: SLK Invitrogen selectivity data (BI); conditions: Compound concentration 3.0 uM
[22] = target: Serine/threonine-protein kinase 25 (Homo sapiens) (UniProt O00506); experiment: STK25 Invitrogen selectivity data (BI); conditions: Compound concentration 3.0 uM
Serine/threonine-protein kinase 25 (Homo sapiens), sequence (O00506 whole entry, looked up): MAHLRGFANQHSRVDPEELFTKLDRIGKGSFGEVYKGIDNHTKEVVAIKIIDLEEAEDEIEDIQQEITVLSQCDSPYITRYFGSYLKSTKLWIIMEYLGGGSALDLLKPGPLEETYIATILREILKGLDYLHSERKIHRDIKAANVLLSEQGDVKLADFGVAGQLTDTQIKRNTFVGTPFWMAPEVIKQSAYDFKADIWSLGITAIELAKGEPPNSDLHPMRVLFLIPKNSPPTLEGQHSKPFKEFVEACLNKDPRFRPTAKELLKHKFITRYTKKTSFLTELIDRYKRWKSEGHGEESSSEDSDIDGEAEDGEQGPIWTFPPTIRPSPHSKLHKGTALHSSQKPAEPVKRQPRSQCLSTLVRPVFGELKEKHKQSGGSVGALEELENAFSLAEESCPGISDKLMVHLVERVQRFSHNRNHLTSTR

Arachidonate 5-lipoxygenase-activating protein, sequence (P20292 whole entry): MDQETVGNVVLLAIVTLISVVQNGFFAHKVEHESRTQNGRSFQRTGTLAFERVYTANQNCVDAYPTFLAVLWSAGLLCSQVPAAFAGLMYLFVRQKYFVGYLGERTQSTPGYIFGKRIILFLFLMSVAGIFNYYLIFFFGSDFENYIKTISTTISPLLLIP
P2Y purinoceptor 1 (Rattus norvegicus), sequence (P49651 whole entry): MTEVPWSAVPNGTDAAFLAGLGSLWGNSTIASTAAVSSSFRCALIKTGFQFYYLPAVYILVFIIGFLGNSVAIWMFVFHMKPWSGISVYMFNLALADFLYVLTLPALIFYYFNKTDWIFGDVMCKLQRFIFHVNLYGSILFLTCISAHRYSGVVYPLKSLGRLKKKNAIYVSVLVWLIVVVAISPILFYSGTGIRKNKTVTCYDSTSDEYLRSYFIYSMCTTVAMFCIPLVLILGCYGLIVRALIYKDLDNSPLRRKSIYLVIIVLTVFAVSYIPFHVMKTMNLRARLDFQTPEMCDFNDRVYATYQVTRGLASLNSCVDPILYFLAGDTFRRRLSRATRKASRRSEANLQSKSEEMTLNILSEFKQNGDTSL
Tyrosine-protein kinase HCK (Homo sapiens), sequence (P08631 2-526 limits assumed): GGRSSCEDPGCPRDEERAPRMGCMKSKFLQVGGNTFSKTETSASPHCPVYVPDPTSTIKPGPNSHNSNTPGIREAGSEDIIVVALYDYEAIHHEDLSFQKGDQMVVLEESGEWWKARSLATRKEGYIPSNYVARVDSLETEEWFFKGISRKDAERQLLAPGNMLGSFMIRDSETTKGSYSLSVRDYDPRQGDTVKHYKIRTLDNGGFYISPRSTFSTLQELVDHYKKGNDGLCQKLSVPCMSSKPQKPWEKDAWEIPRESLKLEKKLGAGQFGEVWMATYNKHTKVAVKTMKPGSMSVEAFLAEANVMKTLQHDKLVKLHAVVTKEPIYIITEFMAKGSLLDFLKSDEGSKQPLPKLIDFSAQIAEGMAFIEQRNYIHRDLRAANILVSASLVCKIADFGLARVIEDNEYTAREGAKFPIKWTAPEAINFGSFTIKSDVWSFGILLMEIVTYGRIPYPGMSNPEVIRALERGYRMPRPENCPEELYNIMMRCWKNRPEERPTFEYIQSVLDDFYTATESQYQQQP
Alpha-2C adrenergic receptor (Homo sapiens), sequence (P18825 whole entry): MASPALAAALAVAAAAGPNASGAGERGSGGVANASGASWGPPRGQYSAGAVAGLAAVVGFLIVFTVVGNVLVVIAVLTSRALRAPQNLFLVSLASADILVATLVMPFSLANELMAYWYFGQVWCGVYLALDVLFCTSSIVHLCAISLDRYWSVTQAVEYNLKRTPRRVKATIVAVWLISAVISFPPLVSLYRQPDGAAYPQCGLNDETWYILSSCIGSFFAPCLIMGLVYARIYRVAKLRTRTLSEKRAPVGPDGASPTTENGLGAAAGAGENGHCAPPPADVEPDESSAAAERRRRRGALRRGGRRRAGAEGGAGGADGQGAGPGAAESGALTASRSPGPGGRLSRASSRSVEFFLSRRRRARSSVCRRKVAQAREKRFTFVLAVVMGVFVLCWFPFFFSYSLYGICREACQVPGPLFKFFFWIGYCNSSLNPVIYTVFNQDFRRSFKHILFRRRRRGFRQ
Glycogen synthase kinase-3 beta (Homo sapiens), sequence (P49841 whole entry, looked up): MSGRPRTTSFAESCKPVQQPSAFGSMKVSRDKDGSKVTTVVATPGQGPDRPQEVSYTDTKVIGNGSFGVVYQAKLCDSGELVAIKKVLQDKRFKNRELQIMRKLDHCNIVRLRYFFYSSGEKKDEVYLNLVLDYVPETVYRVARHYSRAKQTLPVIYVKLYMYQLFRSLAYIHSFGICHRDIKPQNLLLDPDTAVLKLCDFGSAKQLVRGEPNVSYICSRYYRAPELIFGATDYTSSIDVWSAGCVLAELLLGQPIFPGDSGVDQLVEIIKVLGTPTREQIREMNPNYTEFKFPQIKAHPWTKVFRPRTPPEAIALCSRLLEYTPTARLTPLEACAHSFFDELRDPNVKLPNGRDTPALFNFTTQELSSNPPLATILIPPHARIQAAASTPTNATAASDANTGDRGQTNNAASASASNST
Macrophage-stimulating protein receptor (Homo sapiens), sequence (Q04912 25-304 limits assumed): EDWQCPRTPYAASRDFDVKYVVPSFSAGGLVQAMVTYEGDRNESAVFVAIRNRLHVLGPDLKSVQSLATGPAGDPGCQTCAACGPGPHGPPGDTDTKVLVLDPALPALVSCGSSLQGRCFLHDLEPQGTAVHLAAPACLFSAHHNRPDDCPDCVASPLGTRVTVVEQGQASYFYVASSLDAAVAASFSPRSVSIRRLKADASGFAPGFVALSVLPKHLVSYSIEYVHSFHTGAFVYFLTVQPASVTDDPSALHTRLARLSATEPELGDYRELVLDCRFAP
Macrophage-stimulating protein receptor (Homo sapiens), sequence (Q04912 310-1400 limits assumed): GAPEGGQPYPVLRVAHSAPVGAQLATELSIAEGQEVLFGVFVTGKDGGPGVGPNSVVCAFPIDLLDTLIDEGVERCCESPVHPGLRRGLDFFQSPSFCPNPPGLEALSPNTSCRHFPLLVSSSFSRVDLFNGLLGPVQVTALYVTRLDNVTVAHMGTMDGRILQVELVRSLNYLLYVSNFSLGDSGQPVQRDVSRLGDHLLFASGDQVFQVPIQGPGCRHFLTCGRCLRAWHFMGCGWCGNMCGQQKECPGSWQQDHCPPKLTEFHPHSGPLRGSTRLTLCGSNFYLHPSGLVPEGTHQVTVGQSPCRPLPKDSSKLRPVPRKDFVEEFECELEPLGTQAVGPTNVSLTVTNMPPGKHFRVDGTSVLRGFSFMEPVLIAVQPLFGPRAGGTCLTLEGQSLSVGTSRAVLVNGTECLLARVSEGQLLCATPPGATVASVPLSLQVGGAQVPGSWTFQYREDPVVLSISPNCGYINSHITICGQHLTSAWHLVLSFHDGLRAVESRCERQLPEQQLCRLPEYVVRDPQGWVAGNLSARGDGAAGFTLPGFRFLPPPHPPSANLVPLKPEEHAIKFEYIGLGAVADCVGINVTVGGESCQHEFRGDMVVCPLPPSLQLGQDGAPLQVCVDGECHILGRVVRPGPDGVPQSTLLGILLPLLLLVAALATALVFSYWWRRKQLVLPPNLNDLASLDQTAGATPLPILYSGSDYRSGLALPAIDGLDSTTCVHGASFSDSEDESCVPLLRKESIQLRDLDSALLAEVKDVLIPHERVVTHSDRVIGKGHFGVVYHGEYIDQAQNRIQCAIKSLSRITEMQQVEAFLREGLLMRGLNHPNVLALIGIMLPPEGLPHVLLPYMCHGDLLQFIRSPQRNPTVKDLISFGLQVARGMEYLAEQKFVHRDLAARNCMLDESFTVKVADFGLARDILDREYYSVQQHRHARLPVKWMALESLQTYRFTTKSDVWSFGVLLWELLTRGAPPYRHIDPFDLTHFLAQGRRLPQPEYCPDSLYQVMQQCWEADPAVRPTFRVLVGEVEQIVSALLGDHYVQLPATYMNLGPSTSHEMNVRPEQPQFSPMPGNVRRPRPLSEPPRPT
Adenosine receptor A3 (Homo sapiens), sequence (P0DMS8 whole entry): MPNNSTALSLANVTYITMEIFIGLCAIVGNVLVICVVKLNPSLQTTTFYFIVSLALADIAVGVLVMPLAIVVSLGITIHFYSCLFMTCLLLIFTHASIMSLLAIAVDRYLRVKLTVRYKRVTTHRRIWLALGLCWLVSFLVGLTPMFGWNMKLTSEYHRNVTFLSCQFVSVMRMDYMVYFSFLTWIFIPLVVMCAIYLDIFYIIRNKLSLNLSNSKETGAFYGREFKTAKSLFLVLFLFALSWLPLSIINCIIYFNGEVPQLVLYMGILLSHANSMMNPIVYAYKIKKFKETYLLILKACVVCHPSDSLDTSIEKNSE

CN(C)C(=O)Cn1cc(-c2nc(C3(c4ccc(-c5cnc(N)nc5)cc4)CC3)no2)cn1 [BI 0153]
inhibition [1]: 4.1%

CN(C)C(=O)Cn1cc(-c2nc([C@@](C)(c3ccc(-c4cnc(N)nc4)cc3)C3CC3)no2)cn1 [BI 665915]
IC50 [2]: 4.8 µM
residual activity [3]: 33%
residual activity [4]: 100%
residual activity [5]: 100%
residual activity [6]: 88%
residual activity [7]: 87%
residual activity [8]: 84%
residual activity [9]: 88%
residual activity [10]: 95%
residual activity [11]: 104%
residual activity [12]: 95%
residual activity [13]: 95.5%
residual activity [14]: 85%
residual activity [15]: 97%
residual activity [16]: 99%
residual activity [17]: 95%
residual activity [18]: 96%
residual activity [19]: 93.5%
residual activity [20]: 100%
residual activity [21]: 99%
residual activity [22]: 106%
